Here are results for 22 molecules from US11702404B2, “GLP-1R modulating compounds” (priority 2019, dated 2023).

For one data set, the target named is GLP-1R (Homo sapiens, UniProt P43220). Put plainly: GLP-1R activation: cAMP increase in CHO cells stably expressing GLP-1R. It counts as cell-based.
A short description of data set [1]: Microsomal stability, human liver microsomes (predicted hepatic clearance). To be noted: predicted from in vitro microsomal stability data.
The mark [2] stands for this setting: cAMP increase, CHO cells stably expressing GLP-1R, 10 point dose response, 30 minutes incubation, read-out: EC50.

Where two headings read alike, the source gives them in different places. Bounds are passed on as bounds.

GLP-1R, sequence (P43220 24-463): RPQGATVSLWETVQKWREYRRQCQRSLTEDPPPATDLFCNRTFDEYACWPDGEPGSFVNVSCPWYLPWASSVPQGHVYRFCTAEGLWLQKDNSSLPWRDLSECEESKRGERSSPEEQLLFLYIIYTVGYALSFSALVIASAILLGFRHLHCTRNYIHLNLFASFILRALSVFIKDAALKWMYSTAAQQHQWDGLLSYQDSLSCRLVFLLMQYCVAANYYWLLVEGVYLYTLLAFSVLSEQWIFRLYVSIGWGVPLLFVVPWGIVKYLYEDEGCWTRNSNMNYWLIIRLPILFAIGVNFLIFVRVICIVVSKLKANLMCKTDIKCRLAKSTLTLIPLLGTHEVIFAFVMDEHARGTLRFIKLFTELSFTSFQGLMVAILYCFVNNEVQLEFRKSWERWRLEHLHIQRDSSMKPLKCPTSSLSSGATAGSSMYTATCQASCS

Usually EC50 stands for the concentration that produces a half-maximal response. As to `N#Cc1ccc(COc2cccc(-c3ccc(Cc4nc5ccc(C(=O)O)cc5n4CC4(CF)CCC4)c(F)c3)n2)c(F)c1` [Example 393, 2-(4-(6-((4-cyano-2-fluorobenzyl)oxy)pyridin-2-yl)-2-fluorobenzyl)-1-((1-(fluoromethyl)cyclobutyl)methyl)-1H-benzo[d]imidazole-6-carboxylic], on GLP-1R (setting [2]), the half-maximal effective concentration (EC50) is 33.5 nM. For the same molecule, the “Predicted Hepatic Clearance (Pred. Cl.)” value in data set [1] is 5 mL/min/kg.

As to `N#Cc1ccc(COc2cccc(-c3ccc(Cc4nc5ccc(C(=O)O)cc5n4CCC4(CF)CC4)c(F)c3)n2)c(F)c1` [Example 394, 2-(4-(6-((4-cyano-2-fluorobenzyl)oxy)pyridin-2-yl)-2-fluorobenzyl)-1-(2-(1-(fluoromethyl)cyclopropyl)ethyl)-1H-benzo[d]imidazole-6-carboxylic acid], the EC50 on GLP-1R (setting [2]) worked out at 6.06 nM. Besides, in data set [1], the “Predicted Hepatic Clearance (Pred. Cl.)” value was 4.17 mL/min/kg.

As to `N#Cc1ccc(COc2cccc(-c3ccc(Cc4nc5ccc(C(=O)O)cc5n4C[C@@H]4CCN4C4COC4)c(F)c3)n2)c(F)c1` [Example 395, (S)-2-(4-(6-((4-cyano-2-fluorobenzyl)oxy)pyridin-2-yl)-2-fluorobenzyl)-1-((1-(oxetan-3-yl)azetidin-2-yl)methyl)-1H-benzo[d]imidazole-6-carboxylic acid], the EC50 on GLP-1R (read-out: EC50) was 42.3 nM. For the same molecule, in data set [1], the “Predicted Hepatic Clearance (Pred. Cl.)” value is less than 1.83 mL/min/kg.

As for `N#Cc1ccc(COc2cccc(-c3ccc(Cc4nc5ccc(C(=O)O)cc5n4C[C@@H]4CCN4C4COC4)c(F)c3)n2)c(F)c1` [Example 396, (S)-2-(4-(6-((4-cyano-2-fluorobenzyl)oxy)pyridin-2-yl)-2-fluorobenzyl)-1-((1-(oxetan-3-yl)azetidin-2-yl)methyl)-1H-benzo[d]imidazole-6-carboxylic acid], the EC50 at GLP-1R (read-out: EC50) turned out to be 45.5 nM. For the same molecule, the “Predicted Hepatic Clearance (Pred. Cl.)” value in data set [1] was 8.67 mL/min/kg.

Consider `COc1cc(C#N)ccc1COc1nccc(-c2cc(F)c(Cc3nc4c(F)cc(C(=O)O)cc4n3C[C@@H]3CCO3)cc2F)n1` [Example 398, (S)-2-(4-(2-((4-cyano-2-methoxybenzyl)oxy)pyrimidin-4-yl)-2,5-difluorobenzyl)-4-fluoro-1-(oxetan-2-ylmethyl)-1H-benzo[d]imidazole-6-carboxylic acid], for which the concentration for a half-maximal effect (EC50) at GLP-1R (setting [2]) is 0.1 nM. The “Predicted Hepatic Clearance (Pred. Cl.)” value in data set [1] is 10.2 mL/min/kg.

`N#CCC1(Cn2c(Cc3c(F)cc(-c4ccnc(OCc5ccc(C#N)cc5F)n4)cc3F)nc3ccc(C(=O)O)cc32)CC1` [Example 399, 2-(4-(2-((4-cyano-2-fluorobenzyl)oxy)pyrimidin-4-yl)-2,6-difluorobenzyl)-1-((1-(cyanomethyl)cyclopropyl)methyl)-1H-benzo[d]imidazole-6-carboxylic acid]: the EC50 on GLP-1R (setting [2]) was determined as 2.81 nM. Moreover, the “Predicted Hepatic Clearance (Pred. Cl.)” value in data set [1] is 3.3 mL/min/kg.

Regarding `N#CCC1(Cn2c(Cc3cc(F)c(-c4ccnc(OCc5ccc(C#N)cc5F)n4)cc3F)nc3ccc(C(=O)O)nc32)CC1` [Example 400, 2-(4-(2-((4-cyano-2-fluorobenzyl)oxy)pyrimidin-4-yl)-2,5-difluorobenzyl)-3-((1-(cyanomethyl)cyclopropyl)methyl)-3H-imidazo[4,5-b]pyridine-5-carboxylic acid], the EC50 at GLP-1R (setting [2]) is 0.47 nM. Moreover, the “Predicted Hepatic Clearance (Pred. Cl.)” value in data set [1] is less than 1.83 mL/min/kg.

In the case of `COCCn1c(Cc2c(F)cc(-c3cccc(OCc4ccc(C#N)cc4F)n3)c(F)c2F)nc2ccc(C(=O)O)cc21` [Example 401, 2-(4-(6-((4-cyano-2-fluorobenzyl)oxy)pyridin-2-yl)-2,3,6-trifluorobenzyl)-1-(2-methoxyethyl)-1H-benzo[d]imidazole-6-carboxylic acid], at GLP-1R (EC50 (nM)), a half-maximal response (EC50) required 1.34 nM. The “Predicted Hepatic Clearance (Pred. Cl.)” value in data set [1] is 6.92 mL/min/kg.

Turning to `N#Cc1ccc(COc2cccc(-c3ccc(Cc4nc5ccc(C(=O)O)cc5n4Cc4cnco4)c(F)c3)n2)c(F)c1` [Example 402, 2-(4-(6-((4-cyano-2-fluorobenzyl)oxy)pyridin-2-yl)-2-fluorobenzyl)-1-(oxazol-5-ylmethyl)-1H-benzo[d]imidazole-6-carboxylic acid], the EC50 at GLP-1R (setting [2]) was 2.11 nM. Also, in data set [1], the “Predicted Hepatic Clearance (Pred. Cl.)” value was 12 mL/min/kg.

As to `N#Cc1ccc(COc2nccc(-c3ccc(Cc4nc5ccc(C(=O)O)cc5n4C[C@@H]4CCO4)cc3F)n2)c(F)c1` [Example 403, (S)-2-(4-(2-((4-cyano-2-fluorobenzyl)oxy)pyrimidin-4-yl)-3-fluorobenzyl)-1-(oxetan-2-ylmethyl)-1H-benzo[d]imidazole-6-carboxylic acid], the concentration giving a half-maximal response (EC50) on GLP-1R (setting [2]) came to 0.89 nM. In data set [1], the “Predicted Hepatic Clearance (Pred. Cl.)” value was 4.95 mL/min/kg.

In the case of `CCn1cnnc1Cn1c(Cc2ccc(-c3cccc(OCc4ccc(C#N)cc4F)n3)cc2F)nc2ccc(C(=O)O)cc21` [Example 404, 2-(4-(6-((4-cyano-2-fluorobenzyl)oxy)pyridin-2-yl)-2-fluorobenzyl)-1-((4-ethyl-4H-1,2,4-triazol-3-yl)methyl)-1H-benzo[d]imidazole-6-carboxylic acid], at GLP-1R (setting [2]), the EC50 came out at 1.71 nM. The “Predicted Hepatic Clearance (Pred. Cl.)” value in data set [1] is less than 1.83 mL/min/kg.

For `COCCn1c(Cc2c(F)cc(-c3ccnc(OCc4ccc(C#N)cc4F)n3)c(F)c2F)nc2ccc(C(=O)O)cc21` [Example 405, 2-(4-(2-((4-cyano-2-fluorobenzyl)oxy)pyrimidin-4-yl)-2,3,6-trifluorobenzyl)-1-(2-methoxyethyl)-1H-benzo[d]imidazole-6-carboxylic acid], the EC50 on GLP-1R (setting [2]) came out at 1.71 nM. For the same molecule, the “Predicted Hepatic Clearance (Pred. Cl.)” value in data set [1] was 5.5 mL/min/kg.

For the molecule `N#Cc1ccc(COc2nccc(-c3ccc(Cc4nc5c(F)cc(C(=O)O)cc5n4C[C@@H]4CCO4)c(F)c3)n2)c(F)c1` [Example 406, (S)-2-(4-(2-((4-cyano-2-fluorobenzyl)oxy)pyrimidin-4-yl)-2-fluorobenzyl)-4-fluoro-1-(oxetan-2-ylmethyl)-1H-benzo[d]imidazole-6-carboxylic acid], at GLP-1R (setting [2]), the EC50 was 0.18 nM. The “Predicted Hepatic Clearance (Pred. Cl.)” value in data set [1] is 3.83 mL/min/kg.

With `N#Cc1ccc(COc2cccc(-c3ccc(Cc4nc5ccc(C(=O)O)cc5n4Cc4cocn4)c(F)c3)n2)c(F)c1` [Example 407, 2-(4-(6-((4-cyano-2-fluorobenzyl)oxy)pyridin-2-yl)-2-fluorobenzyl)-1-(oxazol-4-ylmethyl)-1H-benzo[d]imidazole-6-carboxylic acid], the EC50 at GLP-1R (setting [2]) is 4.69 nM. The “Predicted Hepatic Clearance (Pred. Cl.)” value in data set [1] is 3.75 mL/min/kg.

As to `COCCn1c(Cc2c(F)cc(-c3cccnc3OCc3cc(Cl)ccc3F)cc2F)nc2ccc(C(=O)O)cc21` [Example 408, 2-(4-(2-((5-chloro-2-fluorobenzyl)oxy)pyridin-3-yl)-2,6-difluorobenzyl)-1-(2-methoxyethyl)-1H-benzo[d]imidazole-6-carboxylic acid], on GLP-1R (setting [2]), the concentration for a half-maximal effect (EC50) was not below 1000 nM. Further, the “Predicted Hepatic Clearance (Pred. Cl.)” value in data set [1] was 10.1 mL/min/kg.

On to `COc1cc(C#N)ccc1COc1cccc(-c2cc(F)c(Cc3nc4ccc(C(=O)O)cc4n3CC3(CF)CC3)cc2F)n1` [Example 409, 2-(4-(6-((4-cyano-2-methoxybenzyl)oxy)pyridin-2-yl)-2,5-difluorobenzyl)-1-((1-(fluoromethyl)cyclopropyl)methyl)-1H-benzo[d]imidazole-6-carboxylic acid], for which the concentration giving a half-maximal response (EC50) on GLP-1R (setting [2]) worked out at 0.37 nM. Besides, in data set [1], the “Predicted Hepatic Clearance (Pred. Cl.)” value is less than 1.83 mL/min/kg.

In the case of `COCCn1c(Cc2ccc(-c3cccc(OCc4ccc(C#N)cc4F)n3)cc2CF)nc2ccc(C(=O)O)cc21` [Example 410, 2-(4-(6-((4-cyano-2-fluorobenzyl)oxy)pyridin-2-yl)-2-(fluoromethyl)benzyl)-1-(2-methoxyethyl)-1H-benzo[d]imidazole-carboxylic acid], at GLP-1R (setting [2]), the concentration giving a half-maximal response (EC50) was found to be 20.8 nM. For the same molecule, in data set [1], the “Predicted Hepatic Clearance (Pred. Cl.)” value was 14.8 mL/min/kg.

`COCCn1c(Cc2ccc(-c3cccc(OCc4ccc(C#N)cc4F)n3)cc2COC)nc2ccc(C(=O)O)cc21` [Example 411, 2-(4-(6-((4-cyano-2-fluorobenzyl)oxy)pyridin-2-yl)-2-(methoxymethyl)benzyl)-1-(2-methoxyethyl)-1H-benzo[d]imidazole-6-carboxylic acid] came in with an EC50 at GLP-1R (EC50 (nM)) of 140 nM. Moreover, the “Predicted Hepatic Clearance (Pred. Cl.)” value in data set [1] is 9.33 mL/min/kg.

For the molecule `N#Cc1ccc(COc2nccc(-c3cc(F)c(Cc4nc5c(F)cc(C(=O)O)cc5n4CC4(CF)CC4)cc3F)n2)c(F)c1` [Example 412, 2-(4-(2-((4-cyano-2-fluorobenzyl)oxy)pyrimidin-4-yl)-2,5-difluorobenzyl)-4-fluoro-1-((1-(fluoromethyl)cyclopropyl)methyl)-1H-benzo[d]imidazole-6-carboxylic acid], at GLP-1R (setting [2]), the EC50 amounted to 0.33 nM. In data set [1], the “Predicted Hepatic Clearance (Pred. Cl.)” value was less than 1.83 mL/min/kg.

In the case of `O=C(O)c1ccc2nc(Cc3cc(F)c(-c4ccnc(OCc5ccc(Cl)cc5F)n4)cc3F)n(C[C@@H]3CCO3)c2c1` [Example 413, (S)-2-(4-(2-((4-chloro-2-fluorobenzyl)oxy)pyrimidin-4-yl)-2,5-difluorobenzyl)-1-(oxetan-2-ylmethyl)-1H-benzo[d]imidazole-6-carboxylic acid], the EC50 on GLP-1R (setting [2]) worked out at 0.07 nM. Further, the “Predicted Hepatic Clearance (Pred. Cl.)” value in data set [1] was less than 1.83 mL/min/kg.

In the case of `COc1cc(Cl)ccc1COc1nccc(-c2cc(F)c(Cc3nc4ccc(C(=O)O)cc4n3CC3(CF)CC3)cc2F)n1` [Example 414, 2-(4-(2-((4-chloro-2-methoxybenzyl)oxy)pyrimidin-4-yl)-2,5-difluorobenzyl)-1-((1-(fluoromethyl)cyclopropyl)methyl)-1H-benzo[d]imidazole-6-carboxylic acid], on GLP-1R (setting [2]), the 50% effective concentration (EC50) came out at 0.44 nM. Besides, the “Predicted Hepatic Clearance (Pred. Cl.)” value in data set [1] was 12 mL/min/kg.

Consider `N#Cc1ccc(COc2nccc(-c3cc(F)c(Cc4nc5ccc(C(=O)O)cc5n4C[C@@H]4CCO4)cc3F)n2)c(F)c1` [Example 415, (S)-2-(4-(2-((4-cyano-2-fluorobenzyl)oxy)pyrimidin-4-yl)-2,5-difluorobenzyl)-1-(oxetan-2-ylmethyl)-1H-benzo[d]imidazole-6-carboxylic acid], for which the EC50 on GLP-1R (setting [2]) came to 0.15 nM. Also, the “Predicted Hepatic Clearance (Pred. Cl.)” value in data set [1] was 4.33 mL/min/kg.
